Measurements as given in patent US20100317073A1, “MOLECULAR APPROACHES FOR THE OPTIMIZATION OF BIOFUEL PRODUCTION” (The Ohio State University Research Foundation, priority 2007, published 2010).

Tested on: Chlorella protothecoides
Test: Growth of Chlorella protothecoides in glycerol supplemented media: growth and total lipid yield
Format: cell-based
Conditions: glycerol supplemented medium
Excerpt: Note that Chlorella protothecoides growth is enhanced by glycerol; a byproduct of biodiesel.

`OCC(O)CO` [glycerol] was tested, and the increase in growth was “at least 10 fold” and the total lipid yield was “enhanced”.
